From BindingDB's records for doi:10.1073/pnas.121170598 (Merck Research Laboratories, 2001)
Bridge positions count the residues as written; N and C are the ends. Peptide text beside a SMILES is read from it.

Key:
[1] = target: Melanin-concentrating hormone receptor 2 (Homo sapiens, UniProt Q969V1)
[2] = target: Melanin-concentrating hormone receptor 1 (Homo sapiens, UniProt Q99705)
Chain of Melanin-concentrating hormone receptor 1 (Q99705 as listed by the source): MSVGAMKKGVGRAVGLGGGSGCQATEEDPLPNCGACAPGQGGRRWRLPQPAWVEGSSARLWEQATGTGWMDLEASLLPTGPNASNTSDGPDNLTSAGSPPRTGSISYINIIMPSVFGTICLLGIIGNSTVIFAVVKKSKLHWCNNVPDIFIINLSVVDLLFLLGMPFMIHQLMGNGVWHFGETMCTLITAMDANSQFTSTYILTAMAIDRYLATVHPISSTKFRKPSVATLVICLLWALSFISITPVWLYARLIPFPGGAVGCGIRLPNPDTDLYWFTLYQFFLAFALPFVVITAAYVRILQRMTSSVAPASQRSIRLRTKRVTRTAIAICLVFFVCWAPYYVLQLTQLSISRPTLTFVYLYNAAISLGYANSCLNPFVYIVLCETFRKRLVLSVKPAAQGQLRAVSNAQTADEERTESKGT

Chain of Melanin-concentrating hormone receptor 2 (Q969V1 whole entry): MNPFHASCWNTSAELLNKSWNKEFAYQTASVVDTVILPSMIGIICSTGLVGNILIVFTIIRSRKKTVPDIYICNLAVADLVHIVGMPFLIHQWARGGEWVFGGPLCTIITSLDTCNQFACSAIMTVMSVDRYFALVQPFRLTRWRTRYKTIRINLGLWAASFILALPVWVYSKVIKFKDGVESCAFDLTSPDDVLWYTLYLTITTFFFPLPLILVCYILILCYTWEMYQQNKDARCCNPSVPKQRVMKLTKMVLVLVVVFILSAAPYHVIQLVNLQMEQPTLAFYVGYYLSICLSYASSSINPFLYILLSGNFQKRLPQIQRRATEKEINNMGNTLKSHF

Row | Ki [2] | SMILES | Ki [1]
1 | 0.2 nM | CSCC[C@@H]1NC(=O)[C@@H](NC(=O)[C@H](CCCNC(=N)N)NC(=O)[C@H](CCSC)NC(=O)[C@@H](NC(=O)[C@@H](N)CC(=O)O)[C@@H](C)O)CSSC[C@@H](C(=O)N[C@@H](Cc2c[nH]c3ccccc23)C(=O)N[C@@H](CCC(=O)O)C(=O)N[C@H](C(=O)O)C(C)C)NC(=O)[C@@H]2CCCN2C(=O)[C@H](CCCNC(=N)N)NC(=O)[C@H](Cc2ccc(O)cc2)NC(=O)[C@H](C(C)C)NC(=O)[C@H](CCCNC(=N)N)NC(=O)CNC(=O)[C@H](C(C)C)NC1=O [Salmon MCH] (H-DTMRCMVGRVYRPCWEV-OH; disulfide 5-14) | 437 nM
2 | – | CSCC[C@@H]1NC(=O)[C@@H](NC(=O)[C@H](CCCNC(=N)N)NC(=O)[C@H](CC(C)C)NC(=O)[C@H](CCSC)NC(=O)[C@H](CC(=O)O)NC(=O)[C@H](Cc2ccccc2)NC(=O)[C@@H](N)CC(=O)O)CSSC[C@@H](C(=O)N[C@@H](Cc2c[nH]c3ccccc23)C(=O)N[C@@H](CCC(N)=O)C(=O)N[C@H](C(=O)O)C(C)C)NC(=O)[C@@H]2CCCN2C(=O)[C@H](CCCNC(=N)N)NC(=O)[C@H](Cc2ccc(O)cc2)NC(=O)[C@H](C(C)C)NC(=O)[C@H](CCCNC(=N)N)NC(=O)CNC(=O)[C@H](CC(C)C)NC1=O [hMCH] | 1.5 nM
